Measured values published in patent publication US6770456B1, “Endogenous retrovirus tumor associated nucleic acids and antigens” (Ludwig Institute for Cancer Research, priority 1998, dated 2004).

Test system: AVL3-EBV B cells
Assay: Peptide sensitization of EBV-transformed B cells to lysis by CTL 13 (51Cr release)
Format: cell-based, human
Conditions: 51Cr-labeled cells incubated 30 min at 20° C. with peptide; effector:target 5:1; chromium release after 4 hr; read-out: half-maximal effect for sensitizing AVL3-EBV B cells to lysis by CTL clone 13
Experimental: Sensitivity of target cells to lysis by the CTL was evaluated by a standard ^51Cr-release assay over 4 hr. Some lysis assays were performed in the presence of the following murine monoclonal antibodies: BB7.2, an IgG2b anti-HLA-A2 (from the ATCC), and OKM1, an IgG2b anti-CD11b (from the ATCC).
One of them, MLAVISCAV (SEQ ID NO:9), was contained within an open reading frame starting with an initiation codon preceeded by a canonical Kozak consensus sequence. This peptide sensitized AVL3-EBV B cells to lysis by CTL clone 13, with an half-maximal effect at 5 nM (FIG. 4). ^51Cr-labeled EBV-transformed B cells from patient AVL3 were incubated for 30 min at 20° C. with the indicated concentrations of peptide. CTL 13 were then added at an effector:target ratio of 5:1, and chromium release was measured after 4 hr.

MLAVISCAV
EC50: 5 nM
